Measurements as given in the NIST ThermoML archive (doi:10.1021/je400134d).
Numbers after ± are expanded uncertainties.

Assay: xn = mol fraction of the nth substance listed
Conditions: 100 kPa, Liquid; for speed of sound: Pulse-echo method; for mass density: Vibrating tube method

CNc1ccccc1 [N-methylaniline] + Cc1ccccc1
Conditions | mass density [kg/m3] | speed of sound [m/s]
293.15 K, x1 = 0.0541 | 873.9 ± 0.21 | 1339.3 ± 1.3
293.15 K, x1 = 0.0986 | 879.611 ± 0.22 | 1350.5 ± 1.3
293.15 K, x1 = 0.1502 | 886.145 ± 0.22 | 1363.2 ± 1.4
293.15 K, x1 = 0.1989 | 892.268 ± 0.23 | 1375.1 ± 1.4
293.15 K, x1 = 0.2473 | 898.297 ± 0.24 | 1387 ± 1.4
293.15 K, x1 = 0.2982 | 904.623 ± 0.25 | 1399.7 ± 1.5
293.15 K, x1 = 0.35 | 910.972 ± 0.27 | 1412.6 ± 1.5
293.15 K, x1 = 0.3898 | 915.862 ± 0.28 | 1422.7 ± 1.6
293.15 K, x1 = 0.446 | 922.654 ± 0.31 | 1436.8 ± 1.6
293.15 K, x1 = 0.4872 | 927.615 ± 0.33 | 1447.3 ± 1.7
293.15 K, x1 = 0.5426 | 934.227 ± 0.36 | 1461.5 ± 1.8
293.15 K, x1 = 0.5859 | 939.349 ± 0.39 | 1472.7 ± 1.8
293.15 K, x1 = 0.6441 | 946.179 ± 0.43 | 1487.8 ± 1.9
293.15 K, x1 = 0.6894 | 951.429 ± 0.47 | 1499.7 ± 1.9
293.15 K, x1 = 0.7385 | 957.096 ± 0.52 | 1512.7 ± 2
293.15 K, x1 = 0.7823 | 962.1 ± 0.56 | 1524.3 ± 2.1
293.15 K, x1 = 0.8377 | 968.392 ± 0.62 | 1539.6 ± 2.1
293.15 K, x1 = 0.8834 | 973.522 ± 0.68 | 1551.3 ± 2.2
293.15 K, x1 = 0.9299 | 978.698 ± 0.74 | 1563.7 ± 2.3
298.15 K, x1 = 0.0532 | 869.146 ± 0.21 | 1317.9 ± 1.3
298.15 K, x1 = 0.0998 | 875.098 ± 0.22 | 1329.6 ± 1.3
298.15 K, x1 = 0.1518 | 881.77 ± 0.22 | 1342.7 ± 1.4
298.15 K, x1 = 0.1906 | 886.675 ± 0.23 | 1352.4 ± 1.4
298.15 K, x1 = 0.2452 | 893.525 ± 0.24 | 1366 ± 1.4
298.15 K, x1 = 0.2887 | 898.955 ± 0.25 | 1377 ± 1.5
298.15 K, x1 = 0.3417 | 905.492 ± 0.26 | 1390.3 ± 1.5
298.15 K, x1 = 0.39 | 911.437 ± 0.28 | 1402.7 ± 1.6
298.15 K, x1 = 0.4434 | 917.945 ± 0.3 | 1416.3 ± 1.6
298.15 K, x1 = 0.49 | 923.58 ± 0.33 | 1428.3 ± 1.7
298.15 K, x1 = 0.5415 | 929.747 ± 0.36 | 1441.7 ± 1.8
298.15 K, x1 = 0.5792 | 934.236 ± 0.38 | 1451.5 ± 1.8
298.15 K, x1 = 0.6432 | 941.787 ± 0.43 | 1468.4 ± 1.9
298.15 K, x1 = 0.6868 | 946.88 ± 0.47 | 1479.9 ± 1.9
298.15 K, x1 = 0.7407 | 953.128 ± 0.52 | 1494.3 ± 2
298.15 K, x1 = 0.7823 | 957.907 ± 0.56 | 1505.4 ± 2.1
298.15 K, x1 = 0.8378 | 964.233 ± 0.62 | 1520.4 ± 2.1
298.15 K, x1 = 0.8844 | 969.501 ± 0.68 | 1533 ± 2.2
298.15 K, x1 = 0.934 | 975.057 ± 0.74 | 1546.4 ± 2.3
303.15 K, x1 = 0.053 | 864.574 ± 0.21 | 1297.3 ± 1.3
303.15 K, x1 = 0.0982 | 870.409 ± 0.21 | 1308.8 ± 1.3
303.15 K, x1 = 0.1501 | 877.091 ± 0.22 | 1321.9 ± 1.4
303.15 K, x1 = 0.1929 | 882.501 ± 0.23 | 1332.7 ± 1.4
303.15 K, x1 = 0.2456 | 889.168 ± 0.24 | 1346.1 ± 1.4
303.15 K, x1 = 0.2837 | 893.953 ± 0.24 | 1355.7 ± 1.5
303.15 K, x1 = 0.3444 | 901.518 ± 0.26 | 1371.2 ± 1.5
303.15 K, x1 = 0.3919 | 907.37 ± 0.28 | 1383.4 ± 1.6
303.15 K, x1 = 0.4478 | 914.21 ± 0.3 | 1397.8 ± 1.6
303.15 K, x1 = 0.4918 | 919.549 ± 0.33 | 1409.3 ± 1.7
303.15 K, x1 = 0.5391 | 925.243 ± 0.35 | 1421.7 ± 1.8
303.15 K, x1 = 0.5886 | 931.18 ± 0.39 | 1434.7 ± 1.8
303.15 K, x1 = 0.6395 | 937.212 ± 0.43 | 1448.2 ± 1.9
303.15 K, x1 = 0.6846 | 942.503 ± 0.46 | 1460.2 ± 1.9
303.15 K, x1 = 0.7398 | 948.933 ± 0.52 | 1475 ± 2
303.15 K, x1 = 0.7782 | 953.381 ± 0.55 | 1485.3 ± 2.1
303.15 K, x1 = 0.842 | 960.67 ± 0.62 | 1502.3 ± 2.1
303.15 K, x1 = 0.879 | 964.897 ± 0.67 | 1512.7 ± 2.2
303.15 K, x1 = 0.934 | 971.087 ± 0.74 | 1527.6 ± 2.3
